Laboratory results taken from the supplement of paper PMC10307832.

Key:
Assay in all cases: relative viability (nuclei count vs DMSO), 5 days (fraction); higher = more cells survive
Vemurafenib + Pemetrexed = compound: CCCS(=O)(=O)Nc1ccc(F)c(C(=O)c2c[nH]c3ncc(-c4ccc(Cl)cc4)cc23)c1F [Vemurafenib] + Nc1nc2[nH]cc(CCc3ccc(C(=O)N[C@@H](CCC(=O)O)C(=O)O)cc3)c2c(=O)[nH]1 [Pemetrexed] (partner 0.2 µM)
In short: (§1)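 Dosing by pin tool came one day after lung cancer cell lines were seeded in 1536-well plates, using either one drug or a fixed anchor-drug dose plus five library-drug doses (not always all listed) in √10 steps. After 5 days, nuclei were counted on 4× images. Relative viability is treated-well nuclei count divided by vehicle-well nuclei count, and values are medians of duplicate plates.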

OSI-027 + Alpelisib = compound: COc1cccc2cc(-c3nc([C@H]4CC[C@H](C(=O)O)CC4)n4ncnc(N)c34)[nH]c12 [OSI-027] + Cc1nc(NC(=O)N2CCC[C@H]2C(N)=O)sc1-c1ccnc(C(C)(C)C(F)(F)F)c1 [Alpelisib] (partner 2 µM)
In short: as §1

Alpelisib + Pictilisib = compound: Cc1nc(NC(=O)N2CCC[C@H]2C(N)=O)sc1-c1ccnc(C(C)(C)C(F)(F)F)c1 [Alpelisib] + CS(=O)(=O)N1CCN(Cc2cc3nc(-c4cccc5[nH]ncc45)nc(N4CCOCC4)c3s2)CC1 [Pictilisib] (partner 1 µM)
In short: as §1

Alpelisib + Crizotinib = compound: Cc1nc(NC(=O)N2CCC[C@H]2C(N)=O)sc1-c1ccnc(C(C)(C)C(F)(F)F)c1 [Alpelisib] + C[C@@H](Oc1cc(-c2cnn(C3CCNCC3)c2)cnc1N)c1c(Cl)ccc(F)c1Cl [Crizotinib] (partner 1 µM)
In short: as §1

UMC-11
relative viability (Vemurafenib + Pemetrexed; first compound 0.03162 µM): 0.876
relative viability (Vemurafenib + Pemetrexed; first compound 0.1 µM): 0.662
relative viability (Vemurafenib + Pemetrexed; first compound 0.3162 µM): 0.717
relative viability (Vemurafenib + Pemetrexed; first compound 1 µM): 0.707
relative viability (OSI-027 + Alpelisib; first compound 0.01 µM): 1.09
relative viability (OSI-027 + Alpelisib; first compound 0.03162 µM): 0.818
relative viability (OSI-027 + Alpelisib; first compound 0.1 µM): 0.881
relative viability (OSI-027 + Alpelisib; first compound 0.3162 µM): 0.597
relative viability (OSI-027 + Alpelisib; first compound 1 µM): 0.49
relative viability (Alpelisib + Pictilisib; first compound 0.04 µM): 0.832
relative viability (Alpelisib + Pictilisib; first compound 0.1265 µM): 0.883
relative viability (Alpelisib + Pictilisib; first compound 0.4 µM): 0.877
relative viability (Alpelisib + Pictilisib; first compound 1.265 µM): 0.922
relative viability (Alpelisib + Pictilisib; first compound 4 µM): 0.772
relative viability (Alpelisib + Crizotinib; first compound 0.04 µM): 0.589
relative viability (Alpelisib + Crizotinib; first compound 0.1265 µM): 0.516
relative viability (Alpelisib + Crizotinib; first compound 0.4 µM): 0.724
relative viability (Alpelisib + Crizotinib; first compound 1.265 µM): 0.688
relative viability (Alpelisib + Crizotinib; first compound 4 µM): 0.536
